This note sets out measurements from US10301325B2, “Quinoline derivative, and pharmaceutical composition, preparation method and use thereof” (SHANGHAI HAIJU BIOLOGICAL TECHNOLOGY CO., LTD., priority 2015, dated 2019).

The target of experiment [1] is c-Met kinase (Homo sapiens, UniProt P08581). Put plainly: c-Met kinase activity assay (HTRF). To be noted: c-Met kinase from Carna Biosciences, read-out: IC50 (c-Met/BIO). The format is biochemical. How it is done: The inhibitory ability of the compounds of the present invention on c-Met kinase activity was determined by Homogeneous Time-Resolved Fluorescence (HTRF), and was expressed by the median inhibitory concentration IC50 value of the compounds. The method was as follows: a series of compounds with gradient concentration were incubated with a specific concentration of the enzyme solution for 5 minutes at room temperature, after which an appropriate amount of enzyme reaction substrate and ATP were added to start the enzyme reaction process. After 30 minutes, an appropriate amount of stop solution and detection solution were added, and the mixture was incubated for 1 hour. Then, the enzyme activity at specific compound concentrations was measured at wavelengths of 665 nm and 620 nm on Envision 2104 Multilabel Microcell Detector of PerkinElmer Company, and the inhibitory activity of the compound at different concentrations on enzyme activity was calculated, then the result was fitted to calculate the IC50 value. The c-Met kinase used in this embodiment was purchased from Carna Biosciences, the test kit HTRF KinEASE-TK was purchased from Cisbio Bioassays Company, and ATP was purchased from Sigma Aldrich Company.
Chain of c-Met kinase (P08581 25-1390): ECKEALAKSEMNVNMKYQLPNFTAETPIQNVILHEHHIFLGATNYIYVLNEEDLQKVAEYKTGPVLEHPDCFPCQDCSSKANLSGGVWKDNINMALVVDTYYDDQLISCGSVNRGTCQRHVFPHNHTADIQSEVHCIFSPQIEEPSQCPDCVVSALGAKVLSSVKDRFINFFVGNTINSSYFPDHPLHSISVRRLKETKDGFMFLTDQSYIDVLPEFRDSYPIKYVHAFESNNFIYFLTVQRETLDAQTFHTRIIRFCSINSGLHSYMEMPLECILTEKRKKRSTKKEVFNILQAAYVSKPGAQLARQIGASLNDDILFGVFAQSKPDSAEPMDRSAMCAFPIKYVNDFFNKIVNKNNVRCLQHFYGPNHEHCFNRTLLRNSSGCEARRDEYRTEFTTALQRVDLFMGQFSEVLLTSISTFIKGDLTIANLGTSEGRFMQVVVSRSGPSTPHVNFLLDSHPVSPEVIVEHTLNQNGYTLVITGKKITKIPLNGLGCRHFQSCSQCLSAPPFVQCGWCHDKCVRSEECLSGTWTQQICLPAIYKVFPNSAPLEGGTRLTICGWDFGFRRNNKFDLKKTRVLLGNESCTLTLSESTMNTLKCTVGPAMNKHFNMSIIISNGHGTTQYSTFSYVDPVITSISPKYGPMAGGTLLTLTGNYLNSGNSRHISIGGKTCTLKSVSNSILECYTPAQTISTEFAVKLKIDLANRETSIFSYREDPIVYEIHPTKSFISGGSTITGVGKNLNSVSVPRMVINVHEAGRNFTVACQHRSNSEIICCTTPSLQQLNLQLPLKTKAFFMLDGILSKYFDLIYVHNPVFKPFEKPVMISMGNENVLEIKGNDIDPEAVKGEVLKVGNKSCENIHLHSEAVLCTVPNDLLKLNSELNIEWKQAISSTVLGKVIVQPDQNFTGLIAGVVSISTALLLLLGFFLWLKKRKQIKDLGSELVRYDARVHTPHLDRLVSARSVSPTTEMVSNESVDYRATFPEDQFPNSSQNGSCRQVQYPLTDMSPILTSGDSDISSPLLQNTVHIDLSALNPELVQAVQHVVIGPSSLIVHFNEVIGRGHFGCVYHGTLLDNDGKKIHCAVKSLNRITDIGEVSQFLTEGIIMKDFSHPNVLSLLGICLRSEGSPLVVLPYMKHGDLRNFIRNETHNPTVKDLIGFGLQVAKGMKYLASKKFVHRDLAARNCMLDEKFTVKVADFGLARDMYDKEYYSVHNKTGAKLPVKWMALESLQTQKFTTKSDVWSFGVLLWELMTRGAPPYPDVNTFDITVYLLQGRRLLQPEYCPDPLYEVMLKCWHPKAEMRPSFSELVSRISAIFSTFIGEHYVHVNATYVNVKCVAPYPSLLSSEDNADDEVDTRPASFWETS
(In TR-FRET formats the signal depends on donor and acceptor labels being close together.)

The subject of experiment [2] is human gastric cancer cells SNU-5 with high expression of c-Met. Put plainly: c-Met cell proliferation inhibition test (CCK-8, 72 hours). Type of experiment: cell-based. To be noted: SNU-5 cells. How it is done: The inhibitory activity of the test compound on proliferation of human gastric cancer cells SNU-5 with high expression of c-Met was determined through the following in vitro cell assay, and the activity can be expressed by IC50 value. Specific experimental method can refer to Neru Munshi, Sebastien Jeay, Youzhi Li, et al., ARQ 197, a Novel and Selective Inhibitor of the Human c-Met Receptor Tyrosine Kinase with Antitumor Activity. Mol Cancer Ther 2010; 9:1544-1553, the content of which is incorporated herein by reference in its entirety. The general method is as follows: first, human tumor cells SNU-5 (purchased from the Institute of Biochemistry and Cell Biology) with high expression of c-Met was selected and inoculated on a 96-well culture plate at a suitable cell concentration (e.g., 5000 cells/ml culture medium), then they were diluted with IMDM culture medium containing 2% FBS to form a series of test compound solutions at gradient concentrations (generally 6 to 7 concentrations) and continuously incubated for 72 hours. After 72 hours, the activity of the test compound on inhibiting cell proliferation could be determined using the Cell Counting Kit-8 (CCK-8, purchased from DojinDo) method. The IC50 value can be calculated from the inhibitory values on cell proliferation of the test compound at a series of different concentrations.

Regarding `CN1C(=O)COc2c1cnc1cc(F)c(C(F)(F)c3nnc4ccc(-c5cnn(C)c5)nn34)cc21` [Embodiment 1, 9-{difluoro(6-(1-methyl-1H-pyrazol-4-yl)-[1,2,4]triazolo[4,3-b]pyridazin-3-yl)methyl}-8-fluoro-4-methyl-2H-[1,4]oxazino[3,2-c]quinolin-3(4H)-one], the IC50 in experiment [1] was found to be 1 nM; in experiment [2] it was 1.2 nM.

For `CN1C(=O)COc2c1cnc1cc(F)c(Sc3nnc4ccc(-c5cnn(C)c5)nn34)cc21` [Embodiment 2, 8-fluoro-4-methyl-9-{[6-(1-methyl-1H-pyrazol-4-yl)-[1,2,4]triazolo[4,3-b]pyridazin-3-yl]sulfanyl}-2H-[1,4]oxazino[3,2-c]quinolin-3 (4H)-one], the IC50 is 2.2 nM in experiment [1] and 2.8 nM in experiment [2].

On to `Cn1cc(-c2ccc3nnc(C(F)(F)c4ccc5ncccc5c4)n3n2)cn1` [JNJ-38877605, reference compound], for which the values for the IC50 in experiment [1] and in experiment [2] were 4.9 nM and 4.7 nM, respectively.
